Patent US7655395B2, “Isolation and use of ryanodine receptors” (E.I. du Pont de Nemours and Company, priority 2002, dated 2010)

How the values were obtained:
[1] = molecular target: native cockroach ryanodine receptors (roach femoral muscle membranes) (Periplaneta americana, UniProt A0ABQ8T696); assay: Radioligand displacement ([3H]-GN analog Cpd 1) on roach femoral muscle membranes; assay type: binding; conditions: displacement of [3H]-Cpd 1, roach muscle membranes, 60 min at 32° C.; read-out: Displacement IC50 (nM) P. americana
Procedure: Binding to Roach Femoral Muscle Membranes:
Assays were carried out in triplicate.

[2] = system: native cockroach ryanodine receptors (in embryonic neuronal cells); assay: Calcium release assay, calcium imaging of embryonic cockroach neuronal cells (Fluo-4); assay type: cell-based, Periplaneta americana; conditions: for Calcium Release (P. americana): Table 6, result in words
Excerpt: Embryonic neuronal cultures of the American cockroach Periplaneta americana were established, with minor modifications, following the method of Beadle and Lees (1988) (in Cell Culture Approaches to Invertebrate Neuroscience, Academic Press, New York, pp 123-127). Briefly, 26-27-day old oothecae were collected, surface-sterilized and cut open along a line one-third of the distance below the dorsal midline. The heads were removed and placed in Schneider's Drosophila medium (Invitrogen Life Technologies™, Carlsbad, Calif.). Using fine forceps 40 brains were individually removed and placed in a small glass vial containing 700 μl of ‘5+4’ medium (‘5+4’ medium contained 5 parts Schneider's Drosophila medium plus 4 parts roach Basal Medium Eagle, with Earle's salts (BME, Sigma™, St. Louis, Mo.). Roach BME (with Earle's salts) contained 5 parts Hepes (1 M), 1 part penicillin/streptomycin and 44 parts BME (with Earle's salts). ‘5+4’ medium was made fresh and sterile filtered (0.2 μm filter) just prior to use). The brains were dissociated by sequential trituration as follows: 1) brains were passed through a standard Pasteur pipette 10 times; 2) the resulting tissue suspension was passed an additional 5 times through a Pasteur pipet with tip flamed to about half of its original diameter; 3) a final 5 passes were performed using a Pasteur pipet with tip flamed to slightly less than half of its original diameter. A repeat pipettor was used to dispense a 5 μl volume of the resulting suspension into the center of each well of a 96-well, glass-bottom plate previously coated with poly-L-lysine (0.2 mg/ml solution). Cells attached to the bottom of the wells during a 50 min incubation at 27-29° C. 150 ul of a 1:1 mixture of Leibovitz's L-15 medium and Yunker's modified Grace's medium was added, and plates were maintained in a humid incubator at 27-29° C. until use. After cells were allowed to attach wells were filled with a 1:1 mixture of Leibovitz's L-15 medium and Yunker's modified Grace's medium (Leibovitz's L-15 and Grace's medium were obtained from Invitrogen Life Technologies™, Carlsbad, Calif. and Yunker's modified Grace's medium was made with Grace's medium modified by addition of 5 mg L-methionine, 10 mg L-alanine, 182 mg MgCl2.6H20, 1 g Albumin Fraction V, 7 ml Fetal bovine serum, 10 ml Chick embryo extract, 2 ml Penicillin/Streptomycin, and 2 mg 20-hydroxyecdysone (prepared in ethanol prior to addition) to a final volume of 100 ml and sterile filtered (0.2 μm filter)). Cells were maintained in a high humidity incubator at 29° C. until testing.
The calcium imaging and acquisition protocols using roach neuronal cells is as follows:
Cells were rinsed in standard physiological saline having the following composition (mM): NaCl 190; CaCl2 9; KCl 3.1; probenicid 1; Tris buffer 10; pH 7.2. Cells were then bathed in standard physiological saline containing the calcium sensitive fluoroprobe Fluo-4 AM (2 μM) and Pluronic F127 (0.002%) for 45 min. Cells were then rinsed in standard physiological saline for at least 15 min prior to testing. Within the hour prior to testing, standard physiological saline was replaced with standard physiological saline containing the organic cation channel blocker pimozide (10 μM), to inhibit influx of external calcium through voltage-gated calcium channels. The 96-well plate was placed on a Prior™ motorized stage mounted onto a Nikon Diaphot microscope and imaged using a 20× Fluor objective (NA 0.75). Individual wells from the 96-well plate were sequentially excited with light at 495 nm, and the emitted fluorescence at 530 nm was detected using a Hamamatsu ORCA ER digital camera with 2 pixel binning (image size 672×512 pixels).
Acquisition control, image processing and image analysis were conducted using Universal Imaging Corporation's MetaMorph™ imaging software (Universal Imaging, West Chester, Pa.). A series of 3 “control” images were acquired for each well. […]

native cockroach ryanodine receptors (roach femoral muscle membranes), sequence (A0ABQ8T696 entry or part of it): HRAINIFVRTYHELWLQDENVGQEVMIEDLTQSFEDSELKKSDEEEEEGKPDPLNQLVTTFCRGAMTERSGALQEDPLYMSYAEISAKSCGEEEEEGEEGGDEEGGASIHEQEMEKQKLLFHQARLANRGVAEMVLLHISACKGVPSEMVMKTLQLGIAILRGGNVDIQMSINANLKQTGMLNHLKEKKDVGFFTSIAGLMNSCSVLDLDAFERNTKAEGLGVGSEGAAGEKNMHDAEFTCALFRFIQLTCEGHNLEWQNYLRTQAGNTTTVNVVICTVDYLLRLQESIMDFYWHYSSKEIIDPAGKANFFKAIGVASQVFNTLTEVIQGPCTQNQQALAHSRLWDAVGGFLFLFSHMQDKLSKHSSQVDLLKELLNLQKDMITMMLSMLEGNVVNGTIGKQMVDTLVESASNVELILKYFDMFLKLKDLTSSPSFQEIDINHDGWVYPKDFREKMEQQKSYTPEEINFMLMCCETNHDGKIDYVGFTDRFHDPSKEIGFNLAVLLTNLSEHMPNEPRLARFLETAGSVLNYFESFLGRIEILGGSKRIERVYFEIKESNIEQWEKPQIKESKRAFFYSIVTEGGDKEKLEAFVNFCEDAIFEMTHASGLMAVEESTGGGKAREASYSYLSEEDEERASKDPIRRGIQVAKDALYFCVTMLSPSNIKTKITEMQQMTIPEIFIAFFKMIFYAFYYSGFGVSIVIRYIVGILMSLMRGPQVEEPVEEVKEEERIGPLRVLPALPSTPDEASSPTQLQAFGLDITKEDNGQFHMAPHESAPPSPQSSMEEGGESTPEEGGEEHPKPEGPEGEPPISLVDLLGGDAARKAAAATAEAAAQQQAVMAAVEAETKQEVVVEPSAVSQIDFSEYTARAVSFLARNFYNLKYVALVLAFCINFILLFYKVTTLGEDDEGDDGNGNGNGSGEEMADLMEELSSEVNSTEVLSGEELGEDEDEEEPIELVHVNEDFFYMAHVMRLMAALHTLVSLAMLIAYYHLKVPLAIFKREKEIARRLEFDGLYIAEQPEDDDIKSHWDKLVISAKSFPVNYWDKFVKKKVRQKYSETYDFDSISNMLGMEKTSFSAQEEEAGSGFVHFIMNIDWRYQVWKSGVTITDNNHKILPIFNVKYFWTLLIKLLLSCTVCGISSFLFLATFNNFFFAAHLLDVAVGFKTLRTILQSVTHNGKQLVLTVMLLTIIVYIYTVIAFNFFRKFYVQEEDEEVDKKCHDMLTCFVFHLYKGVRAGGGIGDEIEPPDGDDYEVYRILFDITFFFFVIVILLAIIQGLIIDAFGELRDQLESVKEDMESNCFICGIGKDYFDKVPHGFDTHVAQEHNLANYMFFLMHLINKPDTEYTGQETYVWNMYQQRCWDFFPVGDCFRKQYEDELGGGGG

SMILES	IC50 [1]	Calcium Release Threshold (nM) P. americana [2]	Calcium Release (P. americana) [2]
Cc1cc(Br)cc(C(=O)NC(C)C)c1NC(=O)c1cc(C(F)(F)F)nn1-c1ncccc1Cl [Cpd 9]	< 300 nM	<300 nM	–
CNC(=O)c1cc(Br)cc(C)c1NC(=O)c1cc(C(F)(F)F)nn1-c1ncccc1Cl [Cpd 15]	< 300 nM	<300 nM	–
Cc1cccc(C(=O)NC(C)C)c1NC(=O)c1cc(Br)nn1-c1ncccc1Cl [Cpd 7]	< 300 nM	<300 nM	–
Oc1c(Br)cc2[nH]c3cnccc3c2c1Br [Bromoeudistomin D, reference compound]	–	–	Agonist
Cc1cc(Cl)cc(C(=O)NC(C)C)c1NC(=O)c1cc(Br)nn1-c1ncccc1Cl [Cpd 13]	< 300 nM	–	–
Cc1cc(Br)cc(C(=O)NC(C)C)c1NC(=O)c1cc(Br)nn1-c1ncccc1Cl [Cpd 12]	< 300 nM	<300 nM	–
Cc1cc(Br)cc(C(=O)NCC(C)C)c1NC(=O)c1cc(C(F)(F)F)nn1-c1ccccc1Cl [Cpd 3]	< 300 nM	–	–
CNC(=O)c1cc(Cl)cc(C)c1NC(=O)c1cc(Cl)nn1-c1ncccc1Cl [Cpd 17]	< 300 nM	<300 nM	–
CNC(=O)c1cccc(C)c1NC(=O)c1cc(C(F)(F)F)nn1-c1ncccc1Cl [Cpd 6]	< 300 nM	<300 nM	–
CCNC(=O)c1cc(Br)cc(Br)c1NC(=O)c1cc(C(F)(F)F)nn1-c1ncccc1Cl [Cpd 18]	< 300 nM	–	–
Cc1cc(Cl)cc(C(=O)NC(C)C)c1NC(=O)c1cc(C(F)(F)F)nn1-c1ncccc1Cl [Cpd 10]	< 300 nM	<300 nM	–
Cc1cccc(C(=O)NC(C)C)c1NC(=O)c1cc(Cl)nn1-c1ncccc1Cl [Cpd 8]	< 300 nM	<300 nM	–
COc1cccc2c1C(=O)c1c(O)c3c(c(O)c1C2=O)C[C@@](O)(C(=O)CO)C[C@@H]3O[C@H]1C[C@H](N)[C@H](O)[C@H](C)O1.Cl [Doxorubicin, reference compound]	–	–	Inactive
